In patent US5079241A, “Cephalosporin derivatives and pharmaceutical compositions in which they are present” (Sanofi, priority 1987, dated 1992):
Values after ≈ are worked out from the molar mass of the structure shown. Like-named read-outs stand apart in the source and are kept apart here.

Columns and labels:
[1] = tested on: Escherichia coli C1/Col E1::Tn3; assay: bacteriostatic action in vitro by the dilution method (MIC); format: cell-based; settings: read-out: minimum inhibitory concentrations (MIC)
Experimental: (§1) The bacteriostatic action was determined in vitro by the dilution method. The study was carried out on both Gram-positive strains and Gram-negative strains.
(§2) The results for various products according to the invention, expressed as minimum inhibitory concentrations (MIC - μg/ml), are collated in Table 3.

[2] = tested on: Escherichia coli SOL RL 90; assay: as above; format: cell-based; settings: SOLRL90, read-out: minimum inhibitory concentrations (MIC)
Experimental: as §1, §2

[3] = tested on: Klebsiella pneumoniae R30; assay: as above; format: cell-based; settings: read-out: minimum inhibitory concentrations (MIC)
Experimental: as §1, §2

[4] = tested on: Proteus vulgaris GN 76/C-1; assay: as above; format: cell-based; settings: GN76, read-out: minimum inhibitory concentrations (MIC)
Experimental: as §1, §2

Providencia 155 = assay: as above; format: cell-based; settings: read-out: minimum inhibitory concentrations (MIC)
Experimental: as §1, §2

[5] = tested on: Pseudomonas aeruginosa NCTC 8203; assay: as above; format: cell-based; settings: NCTC8203, read-out: minimum inhibitory concentrations (MIC)
Experimental: as §1, §2

Staph. aureus Smith = assay: as above; format: cell-based; settings: Staphylococcus aureus, read-out: minimum inhibitory concentrations (MIC)
Experimental: as §1, §2

[6] = pharmacokinetic behavior in baboons, 20 mg/kg (Tables 4 and 6); format: in vivo; settings: baboon; for Cmax: read-out: Max plasma concentration; for AUC(0-t) at 6 h: trapezium method; for concentration at 6 h / concentration at 10 min / concentration at 20 min / concentration at 0.5 h / concentration at 0.75 h / concentration at 1 h / concentration at 1.5 h / concentration at 2 h / concentration at 3 h / concentration at 4 h / concentration at 5 h / concentration at 5.5 h / dose excreted at 6 h: 20 mg/kg; for concentration at 0.5 h: 30 minutes; for concentration at 0.75 h: 45 minutes; for concentration at 1 h: 60 minutes; for concentration at 1.5 h: 90 minutes; for concentration at 2 h: 120 minutes; for concentration at 3 h: 180 minutes; for concentration at 4 h: 240 minutes; for concentration at 5 h: 300 minutes; for concentration at 5.5 h: 330 minutes; for dose excreted at 6 h: urine, 6 h (Table 6), read-out: Excretion in the urine
Experimental: Furthermore, the pharmacokinetic behavior of the products according to the invention was studied in baboons after administration at a dose of 20 mg/kg by intramuscular injection or intravenous injection.
Blood samples taken at various times after administration are used to determine the plasma concentration of the product studied by microbiological assay.
It is thus possible to construct the curve showing the plasma concentration as a function of time, and to determine different pharmacokinetic parameters of the compound studied:
the elimination half-life (t1/2 β) is calculated by the formula [formula] in which β represents the elimination gradient or slope;
the area under the curve (AUC) is determined by the trapezium method.
The plasma concentrations obtained with various products of the invention are collated in Tables 4 and 5. They are expressed in μg/ml.

[7] = protein binding by comparing two standard scales in baboon plasma and phosphate buffer; format: in vitro ADME; settings: baboon plasma vs phosphate buffer (pH 7, 0.03M)
Text: Furthermore, the protein binding is obtained by comparing two standard scales, one being prepared in baboon plasma and the other in phosphate buffer (pH 7, 0.03M).

[8] = plasma, 20 mg/kg (Table 6), read-out: Plasma concentration at 6 h
[9] = plasma, 360 minutes, read-out: plasma concentration

CC(C)(O/N=C(\C(=O)NC1C(=O)N2C(C(=O)O)=C(COC(=O)c3ccc(NC(=O)CN)c(O)c3)CSC12)c1csc(N)n1)C(=O)O (stereo not drawn) [SR 43753, Bis-trifluoroacetate of 7-2-(2-aminothiazol-4-yl)-2-(2-carboxyprop-2-yloxyimino)acetamido]-3-[[4-(2-aminoacetyl)amino-3-hydroxybenzoyloxymethyl]-3-cephem-4-carboxylic acid, syn isomer] showed an MIC [1] of 0.12 µg/mL (≈ 0.177 µM), an MIC [2] of 2 µg/mL (≈ 2.95 µM) and an MIC [3] of 1 µg/mL (≈ 1.48 µM). For the same molecule, the MIC [4] was 0.12 µg/mL (≈ 0.177 µM), the MIC (Providencia 155) was 1 µg/mL (≈ 1.48 µM) and the MIC [5] was 2 µg/mL (≈ 2.95 µM). It also gave an MIC (Staph. aureus Smith) of 2 µg/mL (≈ 2.95 µM), a Tmax ([6]; plasma, 20 mg/kg (Table 6)) of 2 h and a Cmax ([6]; plasma, 20 mg/kg (Table 6)) of 151 µg/mL. It also gave an AUC(0-t) at 6 h ([6]; plasma, 20 mg/kg (Table 6)) of 703 µg·h/mL, a concentration at 6 h [6, 8] of 80.9 µg/mL and a concentration at 10 min ([6]; plasma) of 36.8 µg/mL. The concentration at 20 min ([6]; plasma) was 69.1 µg/mL, the concentration at 0.5 h ([6]; plasma) was 95.2 µg/mL and the concentration at 0.75 h ([6]; plasma) was 129 µg/mL. For the same molecule, the concentration at 1 h ([6]; plasma) was 139 µg/mL, the concentration at 1.5 h ([6]; plasma) was 146 µg/mL and the concentration at 2 h ([6]; plasma) was 151 µg/mL. For the same molecule, the concentration at 3 h ([6]; plasma) was 126 µg/mL, the concentration at 4 h ([6]; plasma) was 121 µg/mL and the concentration at 5 h ([6]; plasma) was 113 µg/mL. The concentration at 5.5 h ([6]; plasma) was 97.6 µg/mL, the concentration at 6 h [6, 9] was 80.9 µg/mL and the dose excreted at 6 h [6] was 18%. It also gave a fraction unbound [7] of 0.16.

For CC(C)(O/N=C(\C(=O)NC1C(=O)N2C(C(=O)O)=C(COC(=O)c3ccc(NC(=O)CCN)c(O)c3)CSC12)c1csc(N)n1)C(=O)O (stereo not drawn) [SR 43904], the MIC [1] was 0.25 µg/mL (≈ 0.361 µM), the MIC [2] was 2 µg/mL (≈ 2.89 µM) and the MIC [3] was 1 µg/mL (≈ 1.45 µM). For the same molecule, the MIC [4] was 0.25 µg/mL (≈ 0.361 µM), the MIC (Providencia 155) was 1 µg/mL (≈ 1.45 µM) and the MIC [5] was 1 µg/mL (≈ 1.45 µM). The MIC (Staph. aureus Smith) was 4 µg/mL (≈ 5.78 µM), the Tmax ([6]; plasma, 20 mg/kg (Table 6)) was 1.5 h and the Cmax ([6]; plasma, 20 mg/kg (Table 6)) was 94.1 µg/mL. It also gave a half-life ([6]; plasma, 20 mg/kg (Table 6), read-out: t1/2 β) of 4.42 h, an AUC(0-t) at 6 h ([6]; plasma, 20 mg/kg (Table 6)) of 348 µg·h/mL and a concentration at 6 h [6, 8] of 34.3 µg/mL. For the same molecule, the concentration at 10 min ([6]; plasma) was 12.6 µg/mL, the concentration at 0.5 h ([6]; plasma) was 52.4 µg/mL and the concentration at 0.75 h ([6]; plasma) was 73 µg/mL. For the same molecule, the concentration at 1 h ([6]; plasma) was 76.1 µg/mL, the concentration at 1.5 h ([6]; plasma) was 94.1 µg/mL and the concentration at 2 h ([6]; plasma) was 76.1 µg/mL. For the same molecule, the concentration at 3 h ([6]; plasma) was 59.7 µg/mL, the concentration at 4 h ([6]; plasma) was 57.3 µg/mL and the concentration at 5 h ([6]; plasma) was 53.4 µg/mL. For the same molecule, the concentration at 5.5 h ([6]; plasma) was 39.9 µg/mL, the concentration at 6 h [6, 9] was 34.3 µg/mL and the dose excreted at 6 h [6] was 17%. The fraction unbound [7] was 0.29.

For CC(C)(O/N=C(\C(=O)NC1C(=O)N2C(C(=O)O)=C(COC(=O)c3ccc(NC(=O)[C@@H](N)CCCN)c(O)c3)CSC12)c1csc(N)n1)C(=O)O (stereo partly drawn) [SR 44128], the MIC [1] was 0.12 µg/mL (≈ 0.163 µM), the MIC [2] was 2 µg/mL (≈ 2.72 µM) and the MIC [3] was 1 µg/mL (≈ 1.36 µM). For the same molecule, the MIC [4] was 0.12 µg/mL (≈ 0.163 µM), the MIC (Providencia 155) was 1 µg/mL (≈ 1.36 µM) and the MIC [5] was 2 µg/mL (≈ 2.72 µM). The MIC (Staph. aureus Smith) was 8 µg/mL (≈ 10.9 µM), the Tmax ([6]; plasma, 20 mg/kg (Table 6)) was 2 h and the Cmax ([6]; plasma, 20 mg/kg (Table 6)) was 195 µg/mL. It also gave an AUC(0-t) at 6 h ([6]; plasma, 20 mg/kg (Table 6)) of 898 µg·h/mL, a concentration at 6 h [6, 8] of 104 µg/mL and a concentration at 10 min ([6]; plasma) of 62.9 µg/mL. It also gave a concentration at 20 min ([6]; plasma) of 115 µg/mL, a concentration at 0.5 h ([6]; plasma) of 135 µg/mL and a concentration at 0.75 h ([6]; plasma) of 177 µg/mL. It also gave a concentration at 1 h ([6]; plasma) of 188 µg/mL, a concentration at 1.5 h ([6]; plasma) of 188 µg/mL and a concentration at 2 h ([6]; plasma) of 195 µg/mL. For the same molecule, the concentration at 3 h ([6]; plasma) was 169 µg/mL, the concentration at 4 h ([6]; plasma) was 142 µg/mL and the concentration at 5 h ([6]; plasma) was 123 µg/mL. It also gave a concentration at 6 h [6, 9] of 105 µg/mL, a dose excreted at 6 h [6] of 72% and a fraction unbound [7] of 0.16.

With CC(C)(O/N=C(\C(=O)NC1C(=O)N2C(C(=O)O)=C(COC(=O)c3ccc(NC(=O)C(N)CCN)c(O)c3)CSC12)c1csc(N)n1)C(=O)O (stereo not drawn) [SR 44130] the MIC [1] was 0.25 µg/mL (≈ 0.347 µM), the MIC [2] was 2 µg/mL (≈ 2.77 µM) and the MIC [3] was 1 µg/mL (≈ 1.39 µM). It also gave an MIC [4] of 0.12 µg/mL (≈ 0.166 µM), an MIC (Providencia 155) of 1 µg/mL (≈ 1.39 µM) and an MIC [5] of 2 µg/mL (≈ 2.77 µM). It also gave an MIC (Staph. aureus Smith) of 8 µg/mL (≈ 11.1 µM), a Tmax ([6]; plasma, 20 mg/kg (Table 6)) of 1.5 h and a Cmax ([6]; plasma, 20 mg/kg (Table 6)) of 143 µg/mL. The AUC(0-t) at 6 h ([6]; plasma, 20 mg/kg (Table 6)) was 707 µg·h/mL, the concentration at 6 h [6, 8] was 90.4 µg/mL and the concentration at 10 min ([6]; plasma) was 39.1 µg/mL. It also gave a concentration at 20 min ([6]; plasma) of 60.9 µg/mL, a concentration at 0.5 h ([6]; plasma) of 81.9 µg/mL and a concentration at 0.75 h ([6]; plasma) of 105 µg/mL. The concentration at 1 h ([6]; plasma) was 122 µg/mL, the concentration at 1.5 h ([6]; plasma) was 143 µg/mL and the concentration at 2 h ([6]; plasma) was 142 µg/mL. The concentration at 3 h ([6]; plasma) was 138 µg/mL, the concentration at 4 h ([6]; plasma) was 135 µg/mL and the concentration at 5 h ([6]; plasma) was 109 µg/mL. For the same molecule, the concentration at 5.5 h ([6]; plasma) was 93.8 µg/mL, the concentration at 6 h [6, 9] was 90.4 µg/mL and the dose excreted at 6 h [6] was 37%. For the same molecule, the fraction unbound [7] was 0.08.
